According to patent US7195788B2, “Pesticidal compositions from prunus” (Premier Botanicals, Ltd., priority 2001, dated 2007):
Several values for one entry are separate records, joined by “and”; a condition that tells them apart may be missing. Identical values can stand only once.

Assays:
Cytospora chrysosperma = assay: In vitro mycelia growth of Cytospora chrysosperma on potato dextrose agar containing the test material; assay type: cell-based; conditions: 23° C.
Experimental: The effectiveness of Prunus compositions was compared to the effectiveness of synthetic benzaldehyde in stopping or restricting the growth of the Cytospora fungus on potato dextrose agar. The volatile compounds of a Prunus virginiana hydrodistillate were concentrated by counter-flow flash evaporation (i.e. collected from vessel 122 as shown in FIG. 2) to provide a concentrated extract that was further processed by distillation to remove hydrocyanic acid. The resulting extract was analyzed and found to contain 1.2% trans-2-hexenal, 98.5% benzaldehyde, and traces of other compounds originally in the hydrodistillate. This extract was reconstituted in distilled water to provide a solution containing approximately 10,000 ppm of Prunus volatiles. This stock solution was used to prepare a series of agar solutions containing between 0 and 10,000 ppm Prunus volatiles. The Prunus material was blended into the agar after autoclaving and prior to pouring the agar into Petri plates. […] All plates were inoculated with a 5-mm potato dextrose agar plug from a two-week-old culture of C. chrysosperma.

Uncinula necator = assay: Powdery mildew development on 'Pinot Noir' grape leaves after spray treatment; assay type: in vivo; conditions: for Powdery mildew disease rating on grape leaves, per repetition: scale 1 = no symptoms, 5 = 100% infected, Prunus 1 crude, Prunus 2 and SB at 1000 ppm, repetitions 1-3
Experimental: Prunus compositions (including crude Prunus virginiana hydrodistillate, collected in vessel 112 of FIG. 2, having the analysis of the first entry of Table 1) were tested on grape plants (Pinot Noir) infected with powdery mildew. The experiment was set up in a complete randomized block design with three repetition, four treatments each, with three observations per treatment. Treatments were as follows: Prunus 1: crude hydrodistillate from Prunus biomass, Prunus 2: benzaldehyde separated from the hydrodistillate at 1,000 ppm, SB-synthetic benzaldehyde, and control-distilled water.
Treatments were applied to infected leaves in early August and in early September. Three adjacent leaves on a vine were sprayed with each treatment and replicated on three different vines (plants). The solutions were applied with a mist sprayer until run off. The first disease reading was obtained in early September, one month after the first treatment application. The second disease reading was obtained in early October, about one month after the second treatment application.
Disease ratings were based on a scale of 1 to 5, with 1 indicating no symptoms and 5 indicating 100-percent infected. The results are summarized in Table 5, in which each datum is a mean value of the three observations for each treatment made on the two dates disease readings were obtained. […] The crude hydrodistillate composition contained all of the volatile chemicals identified above in Example 1. The increased fungicidal action of the crude hydrodistillate indicated synergistic action of the Prunus volatiles relative to purified or synthetic benzaldehyde.

Sphaerotheca pannosa = assay: Powdery mildew development on rose leaves after spray treatment; assay type: in vivo; conditions: for Powdery mildew disease rating on rose leaves, per repetition: scale 1 = no symptoms, 5 = 100% infection, Prunus 1 crude, Prunus 2 and SB at 1000 ppm, repetitions 1-3
Experimental: Prunus compositions (including crude Prunus virginiana hydrodistillate, collected in vessel 112 of FIG. 2, having the SPME determined composition of the first entry in Table 1) were tested on diseased plants and were evaluated as a fungicide for controlling Rose powdery mildew. The experiment was set up in a complete randomized block design with three repetitions and four treatments. Treatments were as follows: Prunus 1: crude hydrodistillate from Prunus biomass, Prunus 2: benzaldehyde separated from the crude hydrodistillate at 1,000 ppm, SB-synthetic benzaldehyde, and control-distilled water.
Treatments were applied to infected leaves twice (one week apart) in late July, and once in late August. All leaves were covered with mildew mycelia at the time of the first treatment. One compound leaf was treated with each treatment. Leaves from different stems were treated for each of the three repetition. The treatments were applied with a mist sprayer until run off. Disease development was rated on a scale of 1 to 5, where 1 indicated no symptoms and 5 indicated 100-percent infected. The first disease rating was obtained at the time of the late August treatment, followed by a second disease rating in early September. […] The crude distillate from the Prunus biomass was effective in eliminating or inhibiting the growth of the fungus on the rose leaves. […] The crude hydrodistillate containing all of the volatile compounds identified in Example 1 appeared to act synergistically, relative to purified or synthetic benzaldehyde, to control the rose mildew fungus.

SMILES: O=Cc1ccccc1 [SB, benzaldehyde]
- Mycelial Growth (radial) (Cytospora chrysosperma; 25 ppm in PDA, 1 day after treatment): 0.0 cm
- Mycelial Growth (radial) (Cytospora chrysosperma; 25 ppm in PDA, 2 days after treatment): 1.2 cm
- Mycelial Growth (radial) (Cytospora chrysosperma; 25 ppm in PDA, 3 days after treatment): 2.8 cm
- Mycelial Growth (radial) (Cytospora chrysosperma; 25 ppm in PDA, 4 days after treatment): 3.8 cm
- Mycelial Growth (radial) (Cytospora chrysosperma; 25 ppm in PDA, 5 days after treatment): 4.1 cm
- Mycelial Growth (radial) (Cytospora chrysosperma; 25 ppm in PDA, 6 days after treatment): 4.1 cm
- Mycelial Growth (radial) (Cytospora chrysosperma; 25 ppm in PDA, 7 days after treatment): 4.1 cm
- Mycelial Growth (radial) (Cytospora chrysosperma; 25 ppm in PDA, 14 days after treatment): 4.1 cm
- Mycelial Growth (radial) (Cytospora chrysosperma; 50 ppm in PDA, 1 day after treatment): 0.0 cm
- Mycelial Growth (radial) (Cytospora chrysosperma; 50 ppm in PDA, 2 days after treatment): 1.1 cm
- Mycelial Growth (radial) (Cytospora chrysosperma; 50 ppm in PDA, 3 days after treatment): 2.6 cm
- Mycelial Growth (radial) (Cytospora chrysosperma; 50 ppm in PDA, 4 days after treatment): 3.1 cm
- Mycelial Growth (radial) (Cytospora chrysosperma; 50 ppm in PDA, 5 days after treatment): 4.0 cm
- Mycelial Growth (radial) (Cytospora chrysosperma; 50 ppm in PDA, 6 days after treatment): 4.1 cm
- Mycelial Growth (radial) (Cytospora chrysosperma; 50 ppm in PDA, 7 days after treatment): 4.1 cm
- Mycelial Growth (radial) (Cytospora chrysosperma; 50 ppm in PDA, 14 days after treatment): 4.1 cm
- Mycelial Growth (radial) (Cytospora chrysosperma; 100 ppm in PDA, 1 day after treatment): 0.0 cm
- Mycelial Growth (radial) (Cytospora chrysosperma; 100 ppm in PDA, 2 days after treatment): 1.2 cm
- Mycelial Growth (radial) (Cytospora chrysosperma; 100 ppm in PDA, 3 days after treatment): 2.7 cm
- Mycelial Growth (radial) (Cytospora chrysosperma; 100 ppm in PDA, 4 days after treatment): 3.5 cm
- Mycelial Growth (radial) (Cytospora chrysosperma; 100 ppm in PDA, 5 days after treatment): 4.1 cm
- Mycelial Growth (radial) (Cytospora chrysosperma; 100 ppm in PDA, 6 days after treatment): 4.1 cm
- Mycelial Growth (radial) (Cytospora chrysosperma; 100 ppm in PDA, 7 days after treatment): 4.1 cm
- Mycelial Growth (radial) (Cytospora chrysosperma; 100 ppm in PDA, 14 days after treatment): 4.1 cm
- Mycelial Growth (radial) (Cytospora chrysosperma; 500 ppm in PDA, 1 day after treatment): 0.0 cm
- Mycelial Growth (radial) (Cytospora chrysosperma; 500 ppm in PDA, 2 days after treatment): 0.9 cm
- Mycelial Growth (radial) (Cytospora chrysosperma; 500 ppm in PDA, 3 days after treatment): 2.3 cm
- Mycelial Growth (radial) (Cytospora chrysosperma; 500 ppm in PDA, 4 days after treatment): 3.1 cm
- Mycelial Growth (radial) (Cytospora chrysosperma; 500 ppm in PDA, 5 days after treatment): 4.0 cm
- Mycelial Growth (radial) (Cytospora chrysosperma; 500 ppm in PDA, 6 days after treatment): 4.0 cm
- Mycelial Growth (radial) (Cytospora chrysosperma; 500 ppm in PDA, 7 days after treatment): 4.1 cm
- Mycelial Growth (radial) (Cytospora chrysosperma; 500 ppm in PDA, 14 days after treatment): 4.1 cm
- Mycelial Growth (radial) (Cytospora chrysosperma; 1,000 ppm in PDA, 1 day after treatment): 0.0 cm
- Mycelial Growth (radial) (Cytospora chrysosperma; 1,000 ppm in PDA, 2 days after treatment): 0.7 cm
- Mycelial Growth (radial) (Cytospora chrysosperma; 1,000 ppm in PDA, 3 days after treatment): 1.6 cm
- Mycelial Growth (radial) (Cytospora chrysosperma; 1,000 ppm in PDA, 4 days after treatment): 2.2 cm
- Mycelial Growth (radial) (Cytospora chrysosperma; 1,000 ppm in PDA, 5 days after treatment): 3.3 cm
- Mycelial Growth (radial) (Cytospora chrysosperma; 1,000 ppm in PDA, 6 days after treatment): 4.0 cm
- Mycelial Growth (radial) (Cytospora chrysosperma; 1,000 ppm in PDA, 7 days after treatment): 4.1 cm
- Mycelial Growth (radial) (Cytospora chrysosperma; 1,000 ppm in PDA, 14 days after treatment): 4.1 cm
- Mycelial Growth (radial) (Cytospora chrysosperma; 5,000 ppm in PDA, 1 day after treatment): 0.0 cm
- Mycelial Growth (radial) (Cytospora chrysosperma; 5,000 ppm in PDA, 2 days after treatment): 0.0 cm
- Mycelial Growth (radial) (Cytospora chrysosperma; 5,000 ppm in PDA, 3 days after treatment): 0.0 cm
- Mycelial Growth (radial) (Cytospora chrysosperma; 5,000 ppm in PDA, 4 days after treatment): 0.0 cm
- Mycelial Growth (radial) (Cytospora chrysosperma; 5,000 ppm in PDA, 5 days after treatment): 0.0 cm
- Mycelial Growth (radial) (Cytospora chrysosperma; 5,000 ppm in PDA, 6 days after treatment): 0.1 cm
- Mycelial Growth (radial) (Cytospora chrysosperma; 5,000 ppm in PDA, 7 days after treatment): 0.3 cm
- Mycelial Growth (radial) (Cytospora chrysosperma; 5,000 ppm in PDA, 14 days after treatment): 0.0 cm
- Mycelial Growth (radial) (Cytospora chrysosperma; 10,000 ppm in PDA, 1 day after treatment): 0.0 cm
- Mycelial Growth (radial) (Cytospora chrysosperma; 10,000 ppm in PDA, 2 days after treatment): 0.0 cm
- Mycelial Growth (radial) (Cytospora chrysosperma; 10,000 ppm in PDA, 3 days after treatment): 0.0 cm
- Mycelial Growth (radial) (Cytospora chrysosperma; 10,000 ppm in PDA, 4 days after treatment): 0.0 cm
- Mycelial Growth (radial) (Cytospora chrysosperma; 10,000 ppm in PDA, 5 days after treatment): 0.0 cm
- Mycelial Growth (radial) (Cytospora chrysosperma; 10,000 ppm in PDA, 6 days after treatment): 0.0 cm
- Mycelial Growth (radial) (Cytospora chrysosperma; 10,000 ppm in PDA, 7 days after treatment): 0.0 cm
- Mycelial Growth (radial) (Cytospora chrysosperma; 10,000 ppm in PDA, 14 days after treatment): 0.0 cm
- Powdery mildew disease rating on grape leaves, per repetition (Uncinula necator; reading 9/7, one month after first spray): 2 and 1
- Powdery mildew disease rating on grape leaves, per repetition (Uncinula necator; reading 10/5, about one month after second spray): 3
- Control of grape powdery mildew (in words) (Uncinula necator; spray on infected Pinot Noir leaves, up to second reading): reduced the spread of the mildew fungus, but did not control it
- Powdery mildew disease rating on rose leaves, per repetition (Sphaerotheca pannosa; reading 8/22): 3 and 2
- Powdery mildew disease rating on rose leaves, per repetition (Sphaerotheca pannosa; reading 9/4): 3 and 2
- Control of rose powdery mildew (in words) (Sphaerotheca pannosa; spray on infected rose leaves): less effective in removing the fungus from the infected rose leaves
